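Where inhibition never reached the appropriate level, the endpoint shown equals the highest concentration tested. Otherwise, values were interpolated linearly from a five-concentration, 48-hour dose response in 96-well plates. GI50: concentration for 50% inhibition of growth.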 Calls of active or inactive are those of the source. No stated cut-off is given here; in the data, active = GI50 up to about 1.1 µM and inactive = higher.
Columns and labels:
Assay in all cases: NCI-60 cell line screen, 48 h
[1] = test system: SR
[2] = test system: EKVX
[3] = test system: HT-29
[4] = test system: OVCAR-4
[5] = test system: SK-MEL-2
[6] = test system: COLO 205
[7] = test system: ACHN
[8] = test system: NCI/ADR-RES
[9] = test system: HCT-15
[10] = test system: MCF7
[11] = test system: MDA-MB-435
[12] = test system: UO-31
[13] = test system: NCI-H460
[14] = test system: NCI-H226
[15] = test system: NCI-H23
[16] = test system: SK-MEL-5
[17] = test system: A549
[18] = test system: SF-539
[19] = test system: OVCAR-3
[20] = test system: SNB-75
[21] = test system: Hs-578T
[22] = test system: IGROV-1
[23] = test system: HOP-62
[24] = test system: CAKI-1
[25] = test system: DU-145
[26] = test system: M14
[27] = test system: SF-268
[28] = test system: T47D
[29] = test system: RPMI-8226
[30] = test system: HL-60
[31] = test system: SK-OV-3
[32] = test system: HCC 2998
[33] = test system: UACC-257
[34] = test system: OVCAR-5
[35] = test system: TK-10
[36] = test system: PC-3
[37] = test system: SW-620
[38] = test system: SN12C
[39] = test system: HOP-92
[40] = test system: KM12
[41] = test system: OVCAR-8
[42] = test system: 786-0
[43] = test system: HCT-116
[44] = test system: RXF 393
[45] = test system: NCI-H522
[46] = test system: Malme-3M
[47] = test system: BT-549
[48] = test system: CCRF-CEM
[49] = test system: SK-MEL-28
[50] = test system: LOX IMVI
[51] = test system: UACC-62
[52] = test system: SF-295
[53] = test system: MDA-N
[54] = test system: U-251
[55] = test system: SNB-19
[56] = test system: A498
[57] = test system: K562
[58] = test system: MOLT-4
[59] = test system: MDA-MB-231

CN(C)c1ccc(/C(F)=C(F)/C(F)=C(F)/C(F)=C(\F)c2ccc(Br)cc2)cc1
GI50 [1]: 5 µM (inactive) | GI50 [2]: 22.9 µM (inactive) | GI50 [3]: 27.5 µM (inactive) | GI50 [4]: 23.9 µM (inactive) | GI50 [5]: 25.9 µM (inactive) | GI50 [6]: 23.4 µM (inactive) | GI50 [7]: 52.8 µM (inactive) | GI50 [8]: 6.4 µM (inactive) | GI50 [9]: 13.3 µM | GI50 [10]: 9.46 µM (inactive) | GI50 [11]: 3.1 µM (inactive) | GI50 [12]: 25.1 µM (inactive) | GI50 [13]: 26.2 µM (inactive) | GI50 [14]: 50 µM (inactive) | GI50 [15]: 14.8 µM (inactive) | GI50 [16]: 25.3 µM (inactive) | GI50 [17]: 31.5 µM (inactive) | GI50 [18]: 33 µM (inactive) | GI50 [19]: 9.38 µM (inactive) | GI50 [20]: 27.2 µM (inactive) | GI50 [21]: 17.2 µM (inactive) | GI50 [22]: 27.6 µM (inactive) | GI50 [23]: 37.2 µM (inactive) | GI50 [24]: 18.7 µM (inactive) | GI50 [25]: 19.4 µM (inactive) | GI50 [26]: 16.1 µM (inactive) | GI50 [27]: 51.8 µM (inactive) | GI50 [28]: 34.7 µM (inactive) | GI50 [29]: 32.7 µM (inactive) | GI50 [30]: 8.97 µM (inactive) | GI50 [31]: 30.1 µM (inactive) | GI50 [32]: 18.2 µM (inactive) | GI50 [33]: > 74.1 µM (inactive) | GI50 [34]: 23.8 µM (inactive) | GI50 [35]: > 75.5 µM (inactive) | GI50 [36]: 15.2 µM (inactive) | GI50 [37]: 22.1 µM (inactive) | GI50 [38]: 6.61 µM (inactive) | GI50 [39]: 47.6 µM (inactive) | GI50 [40]: 9.53 µM (inactive) | GI50 [41]: 33 µM (inactive) | GI50 [42]: 3.92 µM (inactive) | GI50 [43]: 5.33 µM (inactive) | GI50 [44]: 9.2 µM (inactive) | GI50 [45]: 7.46 µM (inactive) | GI50 [46]: 9.29 µM (inactive) | GI50 [47]: 31.8 µM (inactive) | GI50 [48]: 29.4 µM (inactive) | GI50 [49]: > 100 µM (inactive) | GI50 [50]: 19.8 µM (inactive) | GI50 [51]: 22.9 µM (inactive) | GI50 [52]: 6.98 µM (inactive) | GI50 [53]: 2.43 µM (inactive) | GI50 [54]: 17.5 µM (inactive) | GI50 [55]: 23.7 µM (inactive) | GI50 [56]: 16.7 µM (inactive) | GI50 [57]: 13.2 µM (inactive) | GI50 [58]: 25.6 µM (inactive) | GI50 [59]: 39.5 µM (inactive)

O=C1c2ccccc2C(=O)N1CCCSc1ccccc1
GI50 [1]: 31.8 µM (inactive) | GI50 [2]: 57.1 µM (inactive) | GI50 [3]: 31.2 µM (inactive) | GI50 [4]: 71.9 µM (inactive) | GI50 [5]: > 100 µM (inactive) | GI50 [6]: 66.1 µM (inactive) | GI50 [7]: > 100 µM (inactive) | GI50 [8]: 52 µM (inactive) | GI50 [9]: 92.7 µM | GI50 [10]: 78.3 µM (inactive) | GI50 [11]: > 100 µM (inactive) | GI50 [12]: 60.5 µM (inactive) | GI50 [13]: 90.6 µM (inactive) | GI50 [14]: > 100 µM (inactive) | GI50 [15]: 86.7 µM (inactive) | GI50 [16]: 32.7 µM (inactive) | GI50 [17]: 76.2 µM (inactive) | GI50 [18]: > 100 µM (inactive) | GI50 [19]: 28.8 µM (inactive) | GI50 [20]: 64.7 µM (inactive) | GI50 [21]: > 100 µM (inactive) | GI50 [22]: 93.8 µM (inactive) | GI50 [23]: > 100 µM (inactive) | GI50 [24]: 93.1 µM (inactive) | GI50 [25]: > 100 µM (inactive) | GI50 [26]: 66.7 µM (inactive) | GI50 [27]: > 100 µM (inactive) | GI50 [28]: 31.3 µM (inactive) | GI50 [29]: 42.8 µM (inactive) | GI50 [30]: 75.7 µM (inactive) | GI50 [31]: > 100 µM (inactive) | GI50 [32]: 25.1 µM (inactive) | GI50 [33]: 39.7 µM (inactive) | GI50 [34]: > 100 µM (inactive) | GI50 [35]: > 100 µM (inactive) | GI50 [36]: 92 µM (inactive) | GI50 [37]: > 100 µM (inactive) | GI50 [38]: 71.3 µM (inactive) | GI50 [39]: > 100 µM (inactive) | GI50 [40]: 94.4 µM (inactive) | GI50 [41]: > 100 µM (inactive) | GI50 [42]: > 100 µM (inactive) | GI50 [43]: 94.2 µM (inactive) | GI50 [44]: 63.7 µM (inactive) | GI50 [45]: 66.8 µM (inactive) | GI50 [46]: > 100 µM (inactive) | GI50 [47]: > 100 µM (inactive) | GI50 [48]: 38.5 µM (inactive) | GI50 [49]: > 100 µM (inactive) | GI50 [50]: > 100 µM (inactive) | GI50 [51]: 71.6 µM (inactive) | GI50 [52]: 22.6 µM (inactive) | GI50 [53]: 91.4 µM (inactive) | GI50 [54]: 91.4 µM (inactive) | GI50 [55]: > 100 µM (inactive) | GI50 [56]: 33 µM (inactive) | GI50 [57]: 77.1 µM (inactive) | GI50 [58]: 31.8 µM (inactive) | GI50 [59]: > 100 µM (inactive)

CCCCCC(=O)Nc1[nH]nnc1C#N
GI50 [1]: > 100 µM (inactive) | GI50 [2]: > 100 µM (inactive) | GI50 [3]: > 100 µM (inactive) | GI50 [4]: > 100 µM (inactive) | GI50 [5]: > 100 µM (inactive) | GI50 [6]: > 100 µM (inactive) | GI50 [7]: > 100 µM (inactive) | GI50 [8]: > 100 µM (inactive) | GI50 [9]: > 100 µM | GI50 [10]: > 100 µM (inactive) | GI50 [11]: > 100 µM (inactive) | GI50 [12]: > 100 µM (inactive) | GI50 [13]: > 100 µM (inactive) | GI50 [14]: > 100 µM (inactive) | GI50 [15]: > 100 µM (inactive) | GI50 [16]: > 100 µM (inactive) | GI50 [17]: > 100 µM (inactive) | GI50 [18]: > 100 µM (inactive) | GI50 [19]: > 100 µM (inactive) | GI50 [20]: > 100 µM (inactive) | GI50 [21]: > 100 µM (inactive) | GI50 [22]: > 100 µM (inactive) | GI50 [23]: > 100 µM (inactive) | GI50 [24]: > 100 µM (inactive) | GI50 [25]: > 100 µM (inactive) | GI50 [26]: > 100 µM (inactive) | GI50 [27]: > 100 µM (inactive) | GI50 [28]: > 100 µM (inactive) | GI50 [29]: > 100 µM (inactive) | GI50 [30]: > 100 µM (inactive) | GI50 [31]: > 100 µM (inactive) | GI50 [32]: > 100 µM (inactive) | GI50 [33]: > 100 µM (inactive) | GI50 [34]: > 100 µM (inactive) | GI50 [35]: > 100 µM (inactive) | GI50 [36]: > 100 µM (inactive) | GI50 [37]: > 100 µM (inactive) | GI50 [38]: > 100 µM (inactive) | GI50 [39]: > 100 µM (inactive) | GI50 [40]: > 100 µM (inactive) | GI50 [41]: > 100 µM (inactive) | GI50 [42]: > 100 µM (inactive) | GI50 [43]: > 100 µM (inactive) | GI50 [44]: > 100 µM (inactive) | GI50 [45]: > 100 µM (inactive) | GI50 [46]: > 100 µM (inactive) | GI50 [47]: > 100 µM (inactive) | GI50 [48]: > 100 µM (inactive) | GI50 [49]: > 100 µM (inactive) | GI50 [50]: > 100 µM (inactive) | GI50 [51]: > 100 µM (inactive) | GI50 [52]: > 100 µM (inactive) | GI50 [53]: > 100 µM (inactive) | GI50 [54]: > 100 µM (inactive) | GI50 [55]: > 100 µM (inactive) | GI50 [56]: > 100 µM (inactive) | GI50 [57]: > 100 µM (inactive) | GI50 [58]: > 100 µM (inactive) | GI50 [59]: > 100 µM (inactive)

— ChEMBL document CHEMBL1201862, “PubChem BioAssay data set” (2004)
